Source: patent US9708498B2, “Azo compound, ink containing azo compound, display including said ink and electronic paper” (MITSUBISHI CHEMICAL CORPORATION, priority 2012, dated 2017)

Key:
Assay type in all cases: physicochemical
[1] = Relative permittivity of solvent (impedance meter method); conditions: 1 kHz, 22° C.
Description: Precision LCR Meter 4284A, manufactured by Agilent Technologies, Inc., was used to make a measurement by the impedance meter method. […] Relative permittivity=(equivalent parallel capacitance)×(electrode spacing)/(electrode area)/(permittivity of vacuum (ε0))

[2] = Solubility of solvent in water (gas chromatography); conditions: pure water, 25° C.
Procedure: Into a 110-mL vial were introduced 30 g of pure water and 8 g of the solvent. This vial was shaken for 4 hours at a frequency of 200 times per minute in a 25° C. thermostatic chamber. The liquid which had undergone the shaking was centrifuged (6,000×g; for 5 minutes), and the aqueous layer was sampled. The concentration of the solvent dissolved therein was determined by gas chromatography.

[3] = Light fastness test (xenon light weatherometer, retention of absorbance); conditions: retention of absorbance at λmax; n-decane solution, xenon light 340 nm, 0.55 W/m^2, 40 hours, 33° C.
Procedure: The light fastness of compounds 1 to 3, 5, and 7 to 11 and comparative compound 1 was determined in the following manner. In 0.99 g of n-decane was dissolved 0.01 of each compound. This solution was introduced into a cell having an optical-path length of 0.004 mm, and this cell was sealed with an epoxy resin. Using a weatherometer (Atlas Ci4000), the cell was irradiated with xenon light (340 nm; irradiance, 0.55 W/m^2) for 40 hours. During the irradiation, the internal temperature of the test chamber was kept at 33° C.
The retention of each compound was calculated using the following equation.

[4] = Solubility C of the compound in n-decane at 5° C. (saturated solution, absorbance) and product εC; conditions: for Solubility C: in n-decane at 5° C., 24 hours, 0.1-μm filter; for εC: product of ε and saturation concentration C in n-decane at 5° C.
Procedure: The solubility C of each compound in n-decane was determined in the following manner. Each of compounds 1 to 11 and comparative compound 1 was added to n-decane until some of the compound came to remain undissolved, and the mixture was subjected to an ultrasonic treatment at 30° C. for 30 minutes.
After the addition, each mixture was subjected to a 30-minute ultrasonic treatment at 30° C. This mixture was allowed to stand at 5° C. for 24 hours and then subjected to centrifugal filtration with a 0.1-μm filter using a miniature centrifugal machine (centrifugal force, 5,200×g). The saturated solution obtained was diluted to an adequate concentration and examined for absorption spectrum with Hitachi Spectrophotometer U-4100 using a quartz cell having a measuring optical-path length of 10 mm. The concentration of each compound was determined from a relationship between the absorbance at the absorption maximum wavelength λmax (nm) and the molar extinction coefficient ε (L·mol^−1·cm^−1) determined beforehand, and the solubility C (mol·L^−1) thereof was calculated. Furthermore, the product εC of the molar extinction coefficient ε (L·mol^−1·cm^−1) and the solubility C (mol·L^−1) was determined.

[5] = Absorption spectrum of n-decane solution: solution color, absorption maximum wavelength λmax, molar extinction coefficient ε; conditions: for Absorption maximum wavelength λmax: 10 mm quartz cell; for ε (molar extinction coefficient): at λmax
Procedure: The solution color, absorption maximum wavelength (λmax), solubility C in 5° C. n-decane, molar extinction coefficient ε, and εC of each ink are summarized in Table 4.
One milligram of each of compound 1 and comparative compounds 1 and 2 was dissolved in 100 mL of the solvent, and the solution was examined for absorption spectrum with Hitachi Spectrophotometer U-4100 using a quartz cell having a measuring optical-path length of 10 mm. From the spectrum obtained, the absorption maximum wavelength λmax (nm) and the molar extinction coefficient E (L·mol^−1·cm^−1) were determined.

| relative permittivity [1] | solubility at 4 h [2] | Light fastness [3] | Solubility C [4] | εC [4] | Absorption maximum wavelength λmax [5] | ε (molar extinction coefficient) [5] | SMILES |
| --- | --- | --- | --- | --- | --- | --- | --- |
| 2.0 | ≤ 1 µg/mL |  |  |  |  |  | CCCCCCCCCC [n-decane] |
|  |  | A (retention of 100-90%) | ≧19.7 mass % | ≧12000 cm^−1 | 595 nm | 59000 L/mol/cm | CCCCc1ccc(N=Nc2cc(C#N)c(N=Nc3sc(N(CC(CC)CCCC)CC(CC)CCCC)nc3C(C)(C)C)s2)c(C)c1 (stereo not drawn) [Compound 11] |
|  |  | A (retention of 100-90%) | ≧15 mass % | ≧9000 cm^−1 | 595 nm | 57000 L/mol/cm | CCCCc1ccc(N=Nc2cc(C#N)c(N=Nc3sc(N(CC(CC)CCCC)CC(CC)CCCC)nc3C(C)(C)C)s2)cc1 (stereo not drawn) [Compound 10] |
|  |  | A (retention of 100-90%) | ≧10.5 mass % | ≧6000 cm^−1 | 638 nm | 54000 L/mol/cm | CCCCc1ccc(N=Nc2sc(N=Nc3cc(OCC)c(N(CC(CC)CCCC)CC(CC)CCCC)cc3OCC)c(C#N)c2C)cc1 (stereo not drawn) [Compound 4] |
|  |  | D (retention of 49% or less) | 9.1 mass % | 4700 cm⁻¹ | 526 nm | 50000 L/mol/cm | CCCCCCSc1nnc(N=Nc2cc(OC)c(N(Cc3ccc(C(C)(C)C)cc3)Cc3ccc(C(C)(C)C)cc3)cc2NC(C)=O)s1 [compound 1, reference compound] |
|  |  | A (retention of 100-90%) | ≧34.3 mass % | ≧20000 cm^−1 | 617 nm | 70000 L/mol/cm | CCCCC(CC)CN(CC(CC)CCCC)c1ccc(N=Nc2sc(N=Nc3ccc(CCC)cc3)c(C)c2C#N)c(NC(C)=O)c1 (stereo not drawn) [Compound 3] |
|  |  | A (retention of 100-90%) | 17.4 mass % | 9500 cm⁻¹ | 590 nm | 51000 L/mol/cm | CCCCc1ccc(N=Nc2cc(C(=O)OCCC)c(N=Nc3ccc(N(CC(CC)CCCC)CC(CC)CCCC)cc3C)s2)cc1 (stereo not drawn) [Compound 7] |
|  |  | A (retention of 100-90%) | ≧20.1 mass % | ≧10000 cm^−1 | 591 nm | 50000 L/mol/cm | CCCCCc1ccc(N=Nc2cc(C(=O)OCCC)c(N=Nc3ccc(N(CC(CC)CCCC)CC(CC)CCCC)cc3CC)s2)cc1 (stereo not drawn) [Compound 5] |
|  |  | A (retention of 100-90%) | 1.7 mass % | 1220 cm⁻¹ | 608 nm | 62000 L/mol/cm | CCCCc1ccc(N=Nc2sc(N=Nc3ccc(N(CC(CC)CCCC)CC(CC)CCCC)cc3C)c(C#N)c2C)cc1 (stereo not drawn) [Compound 2] |
